The source of these data is US20150087037A1, “FERMENTATION PROCESS” (LanzaTech New Zealand Limited, priority 2013, published 2015).

Experiment [1] has as its system C. autoethanogenum DSM23693. In words: Addition of other known inhibitor to a fermentation optimized for 2,3-Butanediol production. Type of experiment: cell-based, Clostridium autoethanogenum. Conditions: single addition, 15 mM, stable reactor, day 13.2, FIG. 13. The procedure: Fermentations with C. autoethanogenum DSM23693 were carried out in 1.5 L bioreactors at 37° C. The media was prepared according to Table 1. To achieve anaerobicity the reactor vessel was sparged with nitrogen. Prior to inoculation, the gas was switched to either steel mill gas containing H2 (3%), N2 (30%), CO (47%) and CO2 (20%) or pure gases (50% CO, 18-40% CO2, with the balance N2). The gas flow was initially set at 67 ml/min/L, increasing to 200 ml/min during mid-exponential phase, while the agitation was increased from 200 rpm to 800. Na2S was dosed into the bioreactor at 0.25 ml/hr. Once the OD600 reached 1.5, the bioreactor was switched to a continuous mode at a dilution rate of 2.0-1.6 d-l and a bacterial dilution rate of 0.9-0.6 d-l. During continuous mode gas and agitation were adjusted to 900-950 rpm and 800-900 ml/min. Na2S was increased to 1.0 ml/hr.
Liquid culture samples were taken at differing intervals over the duration of the fermentation. These samples were used to establish the optical density at 600 nm (spectrophotometer) and the level of substrates and products (high performance liquid chromatography—HPLC). HPLC was routinely used to quantify the level of acetate, ethanol and 2,3-butanediol. The input and output gas compositions were analysed using a gas chromatographer (GC), allowing measurement of CO and H2 consumption and CO2 production by the culture. […]

The test system of experiment [2] is Ketol-acid reductoisomerase IlvC. Conditions: reference in the literature; cited from earlier work.

Regarding `CCC(C)(O)C(=O)O` (stereo not drawn) [2-hydroxy-2-methylbutyric acid], in experiment [1], the “ethanol:2,3-BDO ratio” value is on record as “drop” and the “production of 2,3-Butanediol” value was “increase”. For the same compound, the “inhibition of ilvC” value in experiment [2] is “known inhibitor”.
